From US20260000642A1 (Tay Therapeutics Limited, priority 2022, published 2026)
Several values for one entry are separate records, joined by “and”; a condition that tells them apart may be missing. Equal entries are not always repeated.

How the values were obtained:
[1] = tested on: rat anti-collagen IgG1 antibodies; assay: CIA model: rat anti-collagen IgG1 antibodies in serum at day 21; format: in vivo, Lewis rat; details: for levels of rat anti-collagen IgG1 antibodies relative to CIA without treatment: day 21
Procedure: Blood was additionally collected from groups 1-7 via cardiac puncture following euthanasia on Day 21. Blood from cardiac puncture was placed in a 1.5 mL centrifuge tube without an anticoagulant and centrifuged at 8000 rcf for 15 minutes. Serum was divided into two separate tubes and stored at −75±15° C. One tube was used to analyze IgG1, and the other tube was reserved for additional analyses.
All data measured and recorded was analyzed using SPSS 16.0 software. Groups were compared using one-way ANOVA and significance was set at p<0.05.

[2] = tested on: collagen-induced arthritis in Lewis rats; assay: CIA model: histopathologic analysis of H&E-stained hind limbs; format: in vivo, Lewis rat
Source text: Hind limbs were collected following euthanasia, with the left limb being used for H&E staining.
H&E-stained slides of designated tissues from animals were transferred to an independent pathologist for microscopic evaluation (SPFBio). Samples were assigned the histologic grades based on the severity of change from tissue where CIA was not induced. Histology grades assigned were as follows: grade 1 (minimal change), grade 2 (mild change), grade 3 (moderate change), grade 4 (marked change), and grade 5 (severe change).
Moderate inflammation was also associated with increased edema fluid, fibrin, and cellular debris. Marked mixed cell inflammation was characterized by dense, widespread accumulations of neutrophils and macrophages with lesser number of lymphocytes within one or more joint spaces, synovium and periarticular soft tissues. Marked inflammation was also associated with abundant edema fluid, fibrin, and cellular debris.
Marked granulation tissue (pannus) was associated with inflammation and was characterized by widespread fibrovascular connective tissue that expanded/replaced the periarticular soft tissues of one or more joints, extended into/expanded joint spaces, was contiguous with areas of erosion/ulcer in articular cartilage and/or increased eroded surface of bone, and variably extended along the diaphysis.
Instances of minimal increased eroded surface were not associated with fragments of bone contiguous and/or surrounded by granulation tissue. […] In some areas, increased eroded surfaces were contiguous with areas of erosion/ulcer in the articular cartilages. Instance of marked increased eroded surface were often associated with fragments of bone contiguous with and/or surrounded by granulation tissue.
This observation was typically most pronounced at joint margins (transition zone). The ulceration was often associated with inflammation and granulation tissue extending through the defect to the subchondral bone.
Marked increased periosteal bone (periosteal bone formation) was characterized by extensive areas of increased bone matrix and numerous prominent osteoblasts lining trabecular surfaces along the metaphysis and/or diaphysis of one or more bones. In some areas, increased periosteal bone was contiguous with increased eroded surface and/or erosion/ulcer at articular cartilage.

[3] = CIA rats, 30 mg/kg (Group 7), seven of eight samples
[4] = hind limbs, CIA induced, 8 animals examined, comparator groups 3-4, dose not given

SMILES: CNC(=O)c1[nH]c(C(=O)NC2CCC2)cc1O[C@@H](C)c1ccccc1 [Example 101, N^5-cyclobutyl-N^2-methyl-3-(1-phenylethoxy)-1H-pyrrole-2,5-dicarboxamide]
- levels of rat anti-collagen IgG1 antibodies relative to CIA without treatment ([1]; 1 mg/kg, p<0.05): significantly decreased
- levels of rat anti-collagen IgG1 antibodies relative to CIA without treatment ([1]; 10 mg/kg, p<0.05): significantly decreased
- levels of rat anti-collagen IgG1 antibodies relative to CIA without treatment ([1]; 30 mg/kg, p<0.01): significantly decreased
- articular cartilage erosion or ulcers ([2]; CIA rats, 3 mg/kg (Group 5)): mild to moderate
- granulation tissue (pannus) ([2]; CIA rats, 3 mg/kg (Group 5)): mild to moderate
- increased eroded surface of bone (bone resorption) ([2]; CIA rats, 3 mg/kg (Group 5)): mild to moderate
- increased periosteal bone (periosteal bone formation) ([2]; CIA rats, 3 mg/kg (Group 5)): mild to moderate
- mixed cell inflammation ([2]; CIA rats, 3 mg/kg (Group 5)): moderate to marked
- erosion in the articular cartilages ([2]; CIA rats, 10 mg/kg (Group 6)): moderate
- granulation tissue (pannus) ([2]; CIA rats, 10 mg/kg (Group 6)): moderate
- increased eroded surface of bone (bone resorption) ([2]; CIA rats, 10 mg/kg (Group 6)): moderate
- increased periosteal bone (periosteal bone formation) ([2]; CIA rats, 10 mg/kg (Group 6)): moderate
- mixed cell inflammation ([2]; CIA rats, 10 mg/kg (Group 6)): moderate
- samples with no recorded pathological observations ([2]; CIA rats, 30 mg/kg (Group 7)): One out of eight samples
- erosion in the articular cartilages [2, 3]: mild
- granulation tissue (pannus) [2, 3]: moderate
- increased eroded surface of bone (bone resorption) [2, 3]: mild
- increased periosteal bone (periosteal bone formation) [2, 3]: mild
- mixed cell inflammation [2, 3]: moderate
- pathologic observations after microscopic evaluation (overall) ([2]; CIA rats, Groups 5-7 (3, 10, 30 mg/kg)): at lower levels relative to samples from animals in the CIA-induced group (Group 2) in a dose-dependent manner
- Erosion/Ulcer, cartilaginous, Mild, number of animals ([2]; hind limbs, CIA induced, 8 animals examined, 30 mg/kg (Group 7)): 4

SMILES: C[C@@H]1C[C@H]2[C@@H]3CCC4=CC(=O)C=C[C@]4(C)[C@@]3(F)[C@@H](O)C[C@]2(C)[C@@]1(O)C(=O)CO [dexamethasone]
- Rat Anti-Collagen IgG1 Antibody Con. ([1]; day 21 serum, reference group (Dexamethasone or GSK620), before fold 2000 correction, individual animals): 11.01 units/ml and 2.63 units/ml and 0.65 units/ml and 1.27 units/ml and 5.87 units/ml and 2.28 units/ml and 3.96 units/ml and 3.67 units/ml
- Final Rat Anti-Collagen IgG1 Antibody Con. ([1]; day 21 serum, reference group (Dexamethasone or GSK620), individual animals): 22019.88 units/ml and 5250.27 units/ml and 1296.14 units/ml and 2541.14 units/ml and 4553.59 units/ml and 7925.50 units/ml and 7346.16 units/ml
- Erosion/Ulcer, cartilaginous, Marked, number of animals [2, 4]: 0
- Erosion/Ulcer, cartilaginous, Mild, number of animals [2, 4]: 0
- Erosion/Ulcer, cartilaginous, Minimal, number of animals [2, 4]: 0
- Erosion/Ulcer, cartilaginous, Moderate, number of animals [2, 4]: 0
- Granulation tissue, Marked, number of animals [2, 4]: 0
- Granulation tissue, Mild, number of animals [2, 4]: 0
- Granulation tissue, Minimal, number of animals [2, 4]: 0
- Granulation tissue, Moderate, number of animals [2, 4]: 0
- Increased bone, periosteum, Marked, number of animals [2, 4]: 0
- Increased bone, periosteum, Mild, number of animals [2, 4]: 0
- Increased bone, periosteum, Minimal, number of animals [2, 4]: 0
- Increased bone, periosteum, Moderate, number of animals [2, 4]: 0
- Increased eroded surface, bone, Marked, number of animals [2, 4]: 0
- Increased eroded surface, bone, Mild, number of animals [2, 4]: 0
- Increased eroded surface, bone, Minimal, number of animals [2, 4]: 0
- Increased eroded surface, bone, Moderate, number of animals [2, 4]: 0
- Mixed cell inflammation, Marked, number of animals [2, 4]: 0
- Mixed cell inflammation, Mild, number of animals [2, 4]: 0
- Mixed cell inflammation, Minimal, number of animals [2, 4]: 0
- Mixed cell inflammation, Moderate, number of animals [2, 4]: 0
- No Visible Lesions, number of animals [2, 4]: 8
